Measurements from US7335481B2, “Methods of identifying compounds that affect a fatty acid cell-surface receptor” (priority 2002, dated 2008).
Read-outs that look alike come from different tables or passages of the source.

Columns and labels:
FFAR (R10; GPR40) [1] = target: T1, FFAR (R10; GPR40) (Homo sapiens, UniProt O14842); assay: HFF11 reporter cell assay, HFF11.pR10 cells expressing FFAR; assay type: cell-based; design: response of the R10 reporter cell line in the initial screening: dose or concentration left out as unconfirmed; conditions: for activation of FFAR: result in words; for response of the R10 reporter cell line in the initial screening: FIG. 1a/1b
T1 construct: expressed in transfected cells; host or cells: HFF11 reporter cells (HeLa-based), line HFF11.pR10
T1 sequence (O14842 whole entry): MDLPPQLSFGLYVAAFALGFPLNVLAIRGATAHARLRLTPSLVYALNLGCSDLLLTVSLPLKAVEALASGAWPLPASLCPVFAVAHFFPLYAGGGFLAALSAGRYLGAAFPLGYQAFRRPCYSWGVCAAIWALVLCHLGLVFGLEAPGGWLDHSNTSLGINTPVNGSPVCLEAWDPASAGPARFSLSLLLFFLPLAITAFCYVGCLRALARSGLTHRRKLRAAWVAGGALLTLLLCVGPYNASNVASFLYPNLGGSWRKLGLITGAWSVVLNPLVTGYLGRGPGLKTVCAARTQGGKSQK
Method: Construction of the HFF11 reporter cell lines (successor of the previously described HeLa based cell line, HF1) expressing the orphan GPCRs studied was performed as earlier reported. (Co-pending U.S. application Ser. No. 09/946,334 filed Sep. 21, 2001; Kotarsky et al. 2001.) They contain the reporter plasmid, pcFUS3, where the original promoter region has been extended by 6 NFkB and 6 STAT elements. (Co-pending U.S. application Ser. No. 09/946,334 filed Sep. 21, 2001; Kotarsky et al., unpublished.) On day 1, HFF11 reporter cells, with or without the test […] receptor, were seeded into 96-well plates at 20,000 cells per well in 100 μl growth medium. On day 3, the medium was removed and replaced by 90 μl serum-free medium. Substances (e.g., compounds) and controls were added in the appropriate concentrations 24 h later. Stimulations were performed at 37 degrees C. for 7 h. Cell lysates were assayed in a BMG Lumistar Galaxy luminometer as previously described. (Kotarsky et al., 2001.) Statistical analysis of the drug concentration-response data was carried out with the GraphPad PRISM software package. In the initial screening, reporter cell lines, with or without recombinant test receptors, were challenged with FFAs, such as AA and LA, at […]. Ten cell lines expressing ten “orphan receptors” (one receptor per cell line) were screened. The expressed receptors were labeled R1-R10.

FFAR (R10; GPR40) [2] = target: T1, FFAR (R10; GPR40); assay: Aequorin reporter assay (calcium release) in CHO and HeLa cells transiently transfected with R10; assay type: cell-based; conditions: CHO and HeLa cells co-transfected with R10 and aequorin, versus sham-transfected cells, FIG. 2
Method: Cells were seeded the day before transfection in a 6-well plate (400,000 cells/well). Then, 0.8 μg of PCDM.AEQ reporter plasmid (Button et al., 1993.) and 1 μg pIRESpuro.R10 receptor plasmid, or pcEGFP for controls, were mixed with 100 μl OptiMEM containing 5 μl per transfection of PLUS reagent. After 15 min., 100 μl OptiMEM and 9 μl (HeLa cells) or 6 μl (CHO cells) of lipofectamine were added and incubated for another 15 min. Then, 800 μl OptiMEM were added, and the cells were washed and incubated with the transfection solution for 5 h. Two days after transfection, cells were loaded with 10 μM coelenterazine and injected into a 96-well plate containing test or control (vehicle) substances. Light emission was recorded for 1 min in a BMG Lumistar Galaxy luminometer and normalized to total emission using […] 100 mM CaCl2 for each well.
Activation of receptor R10 by LA was confirmed by stimulation in two different cell lines, CHO and HeLa, transiently co-transfected with expression vectors containing the R10 ORF (i.e., the gene encoding FFAR) and the calcium-activated photoprotein, aequorin. […] (FIG. 2.)

orphan receptors R1-R9 = assay: HFF11 reporter cell initial screening on the other orphan receptors; assay type: cell-based, human; design: dose or concentration left out as unconfirmed; conditions: data not shown
Source text: Taken together, this prompted an investigation of these FFAs using a screening approach aimed at identifying potential surface receptors. We used a highly sensitive reporter system (Kotarsky et al., 2001) expressing each of ten different putative human heptahelix receptors, for which the endogenous activating ligands were still unknown (i.e., “orphan receptors”), was used. The receptor sequences were selected from GenBank, based on a reasonably high sequence homology to the receptors for leukotriene B4 (an AA derivative), previously cloned. (Owman et al., 1996; Tryselius et al., 2000.)
Construction of the HFF11 reporter cell lines (successor of the previously described HeLa based cell line, HF1) expressing the orphan GPCRs studied was performed as earlier reported. (Co-pending U.S. application Ser. No. 09/946,334 filed Sep. 21, 2001; Kotarsky et al. 2001.) They contain the reporter plasmid, pcFUS3, where the original promoter region has been extended by 6 NFkB and 6 STAT elements. (Co-pending U.S. application Ser. No. 09/946,334 filed Sep. 21, 2001; Kotarsky et al., unpublished.) On day 1, HFF11 reporter cells, with or without the test heptahelix receptor, were seeded into 96-well plates at 20,000 cells per well in 100 μl growth medium. On day 3, the medium was removed and replaced by 90 μl serum-free medium. […]

[3] = FFAR response to free fatty acids, HFF11.pR10 reporter cell line, read-out: Mean EC50
[4] = HFF11 reporter cells expressing FFAR

Compound: CCCCC/C=C\C=C\C(O)CCCCCCCC(=O)O (racemic) [9-HODE, (±)-9-hydroxy, trans-10, cis-12-octadecanoic acid]
- EC50 (FFAR (R10; GPR40) [1]; [3]): 3.4 µM
- activation of FFAR (FFAR (R10; GPR40) [1]; [4]): activated FFAR

Compound: CC1(COc2ccc(CC3SC(=O)NC3=O)cc2)CCCCC1 (racemic) [Ciglitazone, (±)-5-[4-(1-methylcyclohexylmethoxy)-benzyl]thiazolidine-2,4-dione]
- activation of FFAR (FFAR (R10; GPR40) [1]; [4]): strongly activated FFAR

Compound: CCCCC/C=C\C=C\CCCCCCCCC(=O)O [CLA, trans-10, cis-12-octadecanoic acid]
- EC50 (FFAR (R10; GPR40) [1]; [3]): 77.3 µM
- activation of FFAR (FFAR (R10; GPR40) [1]; [4]): activated FFAR

Compound: CCCCCCCCCC(=O)O [Capric acid, Decanoic acid]
- EC50 (FFAR (R10; GPR40) [1]; concentration response curves, HFF11 reporter cells expressing FFAR, FIG. 3, read-out: EC50): 12.6 µM

Compound: CCOC(=O)C(C)(C)Oc1ccc(Cl)cc1 [Clofibrate]
- activation of FFAR (FFAR (R10; GPR40) [1]; [4]): inactive

Compound: CCCCC/C=C\C/C=C\CCCCCCCCCC(=O)O [EDA, cis-11, cis-14- -eicosadienoic acid]
- EC50 (FFAR (R10; GPR40) [1]; [3]): 20 µM

Compound: CCCCCCCC/C=C/CCCCCCCC(=O)O [Elaidic acid, trans-9-octadecanoic acid]
- EC50 (FFAR (R10; GPR40) [1]; [3]): 120 µM

Compound: COc1ccc(Cl)cc1C(=O)NCCc1ccc(S(=O)(=O)NC(=O)NC2CCCCC2)cc1 [Glibenclamid, Glibenclamide]
- activation of FFAR (FFAR (R10; GPR40) [1]; [4]): inactive

Compound: CCCCCCC(O)CCCCCCCCCCC(=O)O (stereo not drawn) [Hydroxystearic acid, 12-hydroxyoctadecanoic acid]
- EC50 (FFAR (R10; GPR40) [1]; [3]): 8 µM

Compound: CCCCCCCCCCCC(=O)O [Lauric acid, Dodecanoic acid]
- EC50 (FFAR (R10; GPR40) [1]; [3]): 22.5 µM

Compound: CCCCC/C=C\C/C=C\CCCCCCCC(=O)O [Linoleic acid, cis-9, cis-12,-octadecanoic acid]
- calcium-mediated luminescence upon stimulation (FFAR (R10; GPR40) [2]): calcium-mediated luminescence flash
- EC50 (FFAR (R10; GPR40) [1]; [3]): 38.4 µM
- response of the R10 reporter cell line in the initial screening (FFAR (R10; GPR40) [1]): strong and reproducible response

Compound: CC(C)(CCCCCCCCCCC(C)(C)CC(=O)O)CC(=O)O [MEDICA 16, 3,3,14,14-tetramethyl-hexadecanedioic acid]
- activation of FFAR (FFAR (R10; GPR40) [1]; [4]): strongly activated FFAR

Compound: CCCC/C=C/CCCCCCCC(=O)O [Myristelaidic acid, trans-9-tetradecenoic acid]
- EC50 (FFAR (R10; GPR40) [1]; [3]): 25 µM

Compound: CCCCCCCC/C=C\CCCCCCCC(=O)O [Oleic acid, cis-9-octadecanoic acid]
- EC50 (FFAR (R10; GPR40) [1]; [3]): 123 µM

Compound: CCCCCCCCCCCCCCCC(=O)O [Palmitic acid, Hexadecanoic acid]
- EC50 (FFAR (R10; GPR40) [1]; [3]): 143 µM

Compound: CCCCCC/C=C\CCCCCCCC(=O)O [Palmitoleic acid, hexadecenoic acid]
- EC50 (FFAR (R10; GPR40) [1]; [3]): 100 µM

Compound: CCCCCCC(O)C/C=C/CCCCCCCC(=O)O (stereo not drawn) [Ricinelaidic acid, 12-hydroxy, trans 9-octadecanoic acid]
- EC50 (FFAR (R10; GPR40) [1]; [3]): 20 µM

Compound: CCCCCCC(O)C/C=C\CCCCCCCC(=O)O (stereo not drawn) [Ricinoleic acid, 12-hydroxy, cis 9-octadecenoic acid]
- EC50 (FFAR (R10; GPR40) [1]; [3]): 8 µM

Compound: CCC=CCC=CCC=CCC=CCCCCC(=O)O [Stearidonic acid, cis-6, cis-9, cis-12-15-octadecanoic acid]
- EC50 (FFAR (R10; GPR40) [1]; [3]): 8.9 µM

Compound: CCCCC/C=C\C/C=C\C/C=C\C/C=C\CCCC(=O)O [arachidonic acid]
- effect on test receptors R1-R9 in the initial screening (orphan receptors R1-R9): no effect
- response of the R10 reporter cell line in the initial screening (FFAR (R10; GPR40) [1]): no effect

Compound: CCCCCCCCCCCCCCCCCC(=O)O [stearic acid]
- activation of FFAR (FFAR (R10; GPR40) [1]; [4]): able to activate the receptor

Compound: CCCCC/C=C\C/C=C\C/C=C\CCCCC(=O)O [γ-Linoleic acid, cis-6, cis-9, cis-12-octadecanoic acid]
- EC50 (FFAR (R10; GPR40) [1]; [3]): 28.5 µM
